Experiment [1] addresses T1, NaV1.7 (Homo sapiens, UniProt Q15858).
T1 construct: expressed in transfected cells; host or cells: HEK293 (tetracycline-inducible)
In words: Manual patch clamp, internal block of NaV1.7 current. The experiment is classed as cell-based. To be noted: compound in internal solution, HEK293 cells, read-out: Nav1.7 Intracellular Inhibition; for inhibition at 3 µM: % inhibition at 3 μM test concentration; for inhibition at 10 µM: % inhibition at 10 μM test concentration. The method, boiled down: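 Whole-cell recordings at room temperature in tetracycline-induced HEK293 cells, compound in CsCl internal solution (pH 7.2), held at −100 mV with 10 ms steps to −20 mV. Four 30 s 5 Hz trains after 5 min baseline; fraction of peak inward current remaining computed as Itest/Ibaseline.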
A general note: The patch-clamp technique gives a direct electrical read-out from membranes.

Experiment [2] addresses T1, NaV1.7. Put plainly: Manual patch clamp, external block of NaV1.7 current. Format: cell-based. Conditions: % inhibition at 10 μM test concentration, compound in external solution, HEK293 cells, read-out: Nav1.7 Extracellular Inhibition. As to the method: Representative compounds of the invention were synthesized according to the described methods and tested for the ability to inhibit voltage-gated sodium channels.
NaV1.7 was expressed in HEK293 cells upon induction with tetracycline. Cells were cultured in DMEM containing 10% dialyzed Fetal Bovine Serum (VWR, Radnor, Pa.), 1% Glutamax (VWR, Radnor, Pa.), 1% Penicillin-Streptomycin (VWR, Radnor, Pa.), 100 mg/L Hygromycin (Thermo Fisher Scientific, Waltham, Mass. and 5 mg/L Blasticidin (Alfa Aesar, Haverhill, Mass.). Cells were grown and maintained at 37° C. in a humidified environment containing 10% CO2 in air. Cells were detached from the culture flask for passage and harvested using 0.05% Trypsin-EDTA (Thermo Fisher Scientific, Waltham, Mass.). To induce NaV1.7, cells were induced with tetracycline (0.1-1 μg/mL, IBI Scientific, Peosta, Iowa) the day before recording and plated onto 24-well plates. Cells were washed with DPBS (VWR, Radnor, Pa.), trypsinized and then triturated five times in 10 mL of growth media to break apart cell aggregates. For one 24-well plate, 2 mL of cell suspension was mixed with 23 mL of fresh growth media and 0.1-1 μg/mL tetracycline added. 1 ml of mixed media with cells was then added to each well of a 24-well plate, with a 12 mm coverslip already placed in the bottom of the well. Cells were then incubated in 37° C. and 10% CO2 overnight.
The intracellular solution contained the following (in mM) CsCl 135, NaCl 10, EGTA 10, HEPES 10, MgCl2 2, adjusted to pH 7.2 with CsOH. The external solution was a normal Ringer solution containing (in mM) NaCl 155, HEPES 10, glucose 10, KCl 3.5, CaCl2 1.5, MgCl2 1 adjusted to pH 7.4 with NaOH. CsCl is from Alfa Aesar, Haverhill, Mass. All other chemicals are from Sigma-Aldrich, St. Louis, Mo. In order to test the degree of internal block by test compounds the compounds were dissolved in internal solution at the indicated test concentration. […] In order to test the degree of external block by test compounds the compounds were dissolved in external solution at the indicated test concentration.
18-24 hours after cells were induced with tetracycline, coverslips were placed into a chamber filled with Normal Ringer solution at room temperature and the chamber placed on a microscope. Pipettes were pulled from borosilicate glass on a P97 puller (Sutter Instrument, Novato, Calif.) and polished with a MF-830 Microforge (Narishige International USA, Inc., Amityville, N.Y.) to have a resistance of 1.5-2.5 MΩ when filled with CsCl internal solution at room temperature. Healthy cells (those that are round and translucent with no visible blemishes) were chosen for seal formation. A seal was formed between the pipette and the cell, and a brief pulse of suction was used to “break in” and establish the whole-cell configuration. The membrane potential was held at −100 mV before the voltage protocol began. Only cells with series resistance between 1.5-5 MΩ were retained for analysis. The voltage protocol was as follows: Cells were held at −100 mV for 12 ms followed by a hyperpolarizing step to −105 mV for 12 ms to monitor the leak. Cells were then stepped back to −100 mV for 40 ms. Cells were then depolarized to −20 mV for 10 ms and then returned to −100 mV for 26 ms.
Once the recording was started, the voltage protocol was run at 30 second intervals for 5 minutes to get a stable baseline. This is followed by 5 Hz stimulation of the same voltage protocol run until the end of experiment. […] The test compound is added for 5 minutes before washing out with normal Ringer's solution. Currents were recorded using PatchMaster software with Heka EPC10 (HEKA Electronics, Lambrecht, Germany). Only cells with inward current amplitudes at −20 mV between 400 pA and 4 nA were accepted. In addition, cells having leak currents greater than 10% of their current amplitudes were discarded. […]

29 compounds from patent US11603355B2, “Charged ion channel blockers and methods for use” (Nocion Therapeutics, Inc., priority 2019, dated 2023) can be followed below.

In general, inhibition refers to the drop in the measured response relative to a control, in per cent.

T1 sequence (Q15858 whole entry): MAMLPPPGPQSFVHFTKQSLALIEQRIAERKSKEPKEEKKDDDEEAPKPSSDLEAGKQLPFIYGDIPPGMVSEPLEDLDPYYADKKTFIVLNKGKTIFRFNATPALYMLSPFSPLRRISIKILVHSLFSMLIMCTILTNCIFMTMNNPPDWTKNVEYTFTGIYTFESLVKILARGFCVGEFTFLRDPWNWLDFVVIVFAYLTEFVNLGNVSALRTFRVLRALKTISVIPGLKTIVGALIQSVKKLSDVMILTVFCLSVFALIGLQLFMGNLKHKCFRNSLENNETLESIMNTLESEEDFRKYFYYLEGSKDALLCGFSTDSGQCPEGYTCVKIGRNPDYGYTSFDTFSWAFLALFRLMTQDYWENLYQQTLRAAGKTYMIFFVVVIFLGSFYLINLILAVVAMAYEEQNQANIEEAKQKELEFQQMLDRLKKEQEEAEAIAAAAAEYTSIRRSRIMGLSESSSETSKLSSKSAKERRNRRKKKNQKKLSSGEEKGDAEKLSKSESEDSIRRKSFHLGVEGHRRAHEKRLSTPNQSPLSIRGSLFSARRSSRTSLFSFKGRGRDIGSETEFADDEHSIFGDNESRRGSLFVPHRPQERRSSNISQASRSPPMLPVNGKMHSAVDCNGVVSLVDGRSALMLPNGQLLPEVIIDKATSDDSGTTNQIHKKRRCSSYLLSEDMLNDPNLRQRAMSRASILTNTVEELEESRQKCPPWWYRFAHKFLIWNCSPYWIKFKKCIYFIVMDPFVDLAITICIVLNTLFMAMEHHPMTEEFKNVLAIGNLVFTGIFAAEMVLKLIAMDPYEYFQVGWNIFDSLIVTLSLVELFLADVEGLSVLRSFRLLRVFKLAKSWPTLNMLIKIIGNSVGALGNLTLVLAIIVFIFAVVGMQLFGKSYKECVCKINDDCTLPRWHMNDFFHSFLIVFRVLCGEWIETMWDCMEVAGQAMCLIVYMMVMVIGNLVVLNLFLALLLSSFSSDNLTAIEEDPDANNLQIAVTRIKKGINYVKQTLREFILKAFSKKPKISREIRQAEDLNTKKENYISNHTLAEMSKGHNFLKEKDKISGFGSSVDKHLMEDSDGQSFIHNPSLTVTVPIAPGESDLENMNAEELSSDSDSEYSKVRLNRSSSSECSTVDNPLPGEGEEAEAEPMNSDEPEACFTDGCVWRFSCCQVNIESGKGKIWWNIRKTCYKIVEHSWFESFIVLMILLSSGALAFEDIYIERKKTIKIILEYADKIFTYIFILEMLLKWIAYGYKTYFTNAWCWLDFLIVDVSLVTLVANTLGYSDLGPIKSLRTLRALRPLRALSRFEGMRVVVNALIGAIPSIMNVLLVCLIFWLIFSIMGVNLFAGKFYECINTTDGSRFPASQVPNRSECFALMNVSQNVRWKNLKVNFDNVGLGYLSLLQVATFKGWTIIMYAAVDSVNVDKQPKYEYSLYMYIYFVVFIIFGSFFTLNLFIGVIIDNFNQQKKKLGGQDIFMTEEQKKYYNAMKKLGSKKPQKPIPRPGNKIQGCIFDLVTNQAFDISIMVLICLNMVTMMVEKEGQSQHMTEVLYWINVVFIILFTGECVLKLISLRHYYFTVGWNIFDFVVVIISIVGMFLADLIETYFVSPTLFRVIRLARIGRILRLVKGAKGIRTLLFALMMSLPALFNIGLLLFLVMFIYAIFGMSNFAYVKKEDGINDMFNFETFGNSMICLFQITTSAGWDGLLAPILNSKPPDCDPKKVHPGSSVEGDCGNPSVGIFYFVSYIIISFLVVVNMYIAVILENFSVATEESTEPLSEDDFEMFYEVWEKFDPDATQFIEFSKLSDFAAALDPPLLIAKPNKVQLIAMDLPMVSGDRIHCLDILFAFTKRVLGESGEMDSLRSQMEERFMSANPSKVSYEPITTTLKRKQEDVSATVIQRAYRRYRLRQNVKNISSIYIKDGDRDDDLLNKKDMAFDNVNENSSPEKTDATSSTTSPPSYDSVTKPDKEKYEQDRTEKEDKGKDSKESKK

In the case of `COC(=O)c1cccc(C[N+]2(CC(=O)Nc3c(C)cccc3C)CCCCC2)c1.[Br-]` [Compound 35A, 1-(2-((2,6-dimethylphenyl)amino)-2-oxoethyl)-1-(3-(methoxycarbonyl)benzyl) piperidin-1-ium bromide], the inhibition at 3 µM in experiment [1] was over 90%. In addition, the inhibition at 10 µM in experiment [2] is under 40%.

In the case of `CCCc1cccc(C)c1NC(=O)C[N+]1(Cc2ccccc2)CCCCCC1.[Br-]` [Compound 75A], in experiment [1], the inhibition at 3 µM is over 90%.

As to `CCC(=O)OC1CCC[N+](CC(=O)Nc2c(C)cccc2C)(Cc2ccccc2)C1.[Br-]` (stereo not shown) [Compound 52A, 1-benzyl-1-(2-((2,6-dimethylphenyl)amino)-2-oxoethyl)-3-(propionyloxy) piperidin-1-ium bromide], the inhibition at 3 µM in experiment [1] is over 90%.

Regarding `COC(=O)C1CC[N+](CC(=O)Nc2c(C)cccc2C)(Cc2ccccc2)CC1.[Br-]` (stereo not shown) [Compound 44A, 1-benzyl-1-(2-((2,6-dimethylphenyl)amino)-2-oxoethyl)-4-(methoxycarbonyl) piperidin-1-ium bromide], the inhibition at 3 µM in experiment [1] was over 90%. In experiment [2], the inhibition at 10 µM is under 40%.

For the compound `Cc1cccc(C)c1C(=O)OCC[N+]1(Cc2ccccc2)CCCCCC1.[Br-]` [Compound 82A, 1-benzyl-1-(2-((2,6-dimethylbenzoyl)oxy)ethyl) azepan-1-ium bromide], the inhibition at 3 µM in experiment [1] lay within 70 to 90%.

With `CCCCNc1ccc(NC(=O)C[N+]2(Cc3ccccc3)CCCCCC2)cc1.O=C[O-]` [Compound 41A, 1-benzyl-1-(2-((4-(butylamino)phenyl)amino)-2-oxoethyl) azepan-1-ium formate], in experiment [1], the inhibition at 10 µM was in the range of 70 to 95%.

For the compound `Cc1cccc(C(C)C)c1NC(=O)C[N+]1(Cc2ccccc2)CCCCCC1.[Br-]` [Compound 74A], the inhibition at 3 µM in experiment [1] fell in the range of 70 to 90%.

With `COC(=O)c1ccccc1C[N+]1(CC(=O)Nc2c(C)cccc2C)CCCCC1.[Br-]` [Compound 37A, 1-(2-((2,6-dimethylphenyl)amino)-2-oxoethyl)-1-(2-(methoxycarbonyl)benzyl) piperidin-1-ium bromide], in experiment [1], the inhibition at 3 µM lay in the range of 70 to 90% and the inhibition at 10 µM was 70 to 95%.

Take `CCCNC(=O)C1CCC[N+](CC(=O)Nc2c(C)cccc2C)(Cc2ccccc2)C1` (stereo not shown) [Compound 57A]: the inhibition at 3 µM in experiment [1] is 70 to 90%.

As to `Cc1cccc(-c2ccccc2)c1NC(=O)C[N+]1(Cc2ccccc2)CCCCCC1.[Br-]` [Compound 76A], in experiment [1], the inhibition at 3 µM is over 90%. Moreover, the inhibition at 10 µM in experiment [2] lay within 40 to 70%.

In the case of `[2H]c1c([2H])c([2H])c(C[N+]2(CC(=O)Nc3c(C)cccc3C)CCCCCC2)c([2H])c1[2H].[Cl-]` [Compound 33A, 1-(2-((2,6-dimethylphenyl)amino)-2-oxoethyl)-1-((phenyl-d5)methyl) azepan-1-ium chloride], the inhibition at 3 µM in experiment [1] is over 90%. Further, the inhibition at 10 µM in experiment [2] lay in the range of 40 to 70%.

As for `Cc1cccc(C)c1N1CCC([N+]2(Cc3ccccc3)CCCCC2)C1=O.[Br-]` (stereo not shown) [Compound 89A, 1-benzyl-1-(1-(2,6-dimethylphenyl)-2-oxopyrrolidin-3-yl)piperidin-1-ium bromide], the inhibition at 3 µM in experiment [1] is 70 to 90%.

As for `COC(=O)c1ccc(C[N+]2(CC(=O)Nc3c(C)cccc3C)CCCCC2)cc1.[Br-]` [Compound 36A, 1-(2-((2,6-dimethylphenyl)amino)-2-oxoethyl)-1-(4-(methoxycarbonyl)benzyl) piperidin-1-ium bromide], in experiment [1], the inhibition at 3 µM was in the range of 70 to 90%.

Take `Cc1cccc(C)c1NC(=O)C[N+]1(Cc2ccccc2)CCCC(C(=O)NC(C)C)C1` (stereo not shown) [Compound 56A]: the inhibition at 3 µM in experiment [1] fell in the range of 40 to 70%.

For the compound `CCOc1cccc(C)c1NC(=O)C[N+]1(Cc2ccccc2)CCCCCC1.[Br-]` [Compound 77A], in experiment [1], the inhibition at 3 µM is 70 to 90%.

As for `CCOC(=O)C1CCC[N+](CC(=O)Nc2c(C)cccc2C)(Cc2ccccc2)C1.[Br-]` (stereo not shown) [Compound 45A, 1-benzyl-1-(2-((2,6-dimethylphenyl)amino)-2-oxoethyl)-3-(ethoxycarbonyl) piperidin-1-ium bromide], in experiment [1], the inhibition at 3 µM lay within 70 to 90%.

Consider `CCC(=O)Oc1cccc(C)c1NC(=O)C[N+]1(Cc2ccccc2)CCCCCC1.[Br-]` [Compound 80A, 1-benzyl-1-(2-((2-methyl-6-(propionyloxy)phenyl)amino)-2-oxoethyl) azepan-1-ium bromide], for which, in experiment [1], the inhibition at 3 µM is over 90%. Moreover, the inhibition at 10 µM in experiment [2] is under 40%.

Turning to `Cc1cccc(C)c1NC(=O)C[N+]1(Cc2ccccc2)CCCC(C(=O)N(C)C)C1.[Br-]` (stereo not shown) [Compound 65A], the inhibition at 3 µM in experiment [1] was over 90%.

Consider `CC[N+](CC)(CCCc1ccccc1)CC(=O)Nc1c(C)cccc1C.[Br-]` [Compound 86A, N-(2-((2,6-dimethylphenyl)amino)-2-oxoethyl)-N, N-diethyl-3-phenylpropan-1-aminium bromide], for which, in experiment [1], the inhibition at 3 µM is over 90% and the inhibition at 10 µM is over 95%. For the same compound, the inhibition at 10 µM in experiment [2] was under 40%.

For `CCCOC(=O)N1CCC[N+](CC(=O)Nc2c(C)cccc2C)(Cc2ccccc2)CC1.[Br-]` (stereo not shown) [Compound 68A, 1-benzyl-1-(2-((2,6-dimethylphenyl)amino)-2-oxoethyl)-4-(propoxycarbonyl)-1,4-diazepan-1-ium bromide], in experiment [1], the inhibition at 3 µM is over 90%.

`Cc1cccc(C)c1NC(=O)C[N+]1(Cc2ccccc2)CCCC(C(=O)N2CCCCC2)C1` (stereo not shown) [Compound 63A]: the inhibition at 3 µM in experiment [1] is over 90%.

For the compound `CNC(=O)C1CCC[N+](CC(=O)Nc2c(C)cccc2C)(Cc2ccccc2)C1` (stereo not shown) [Compound 55A], the inhibition at 3 µM in experiment [1] lay in the range of 70 to 90%.

In the case of `COc1cccc(C)c1NC(=O)C[N+]1(Cc2ccccc2)CCCCCC1` [Compound 71A], the inhibition at 3 µM in experiment [1] is 70 to 90%.

On to `CCNC(=O)C1CCC[N+](CC(=O)Nc2c(C)cccc2C)(Cc2ccccc2)C1.[Br-]` (stereo not shown) [Compound 54A, 1-benzyl-1-(2-((2,6-dimethylphenyl)amino)-2-oxoethyl)-3-(ethylcarbamoyl) piperidin-1-ium bromide], for which, in experiment [1], the inhibition at 3 µM is over 90%.

Turning to `Cc1cccc(C)c1NC(=O)C[N+]1(Cc2ccccc2)CCCC(C(=O)N2CCCC2)C1` (stereo not shown) [Compound 62A], the inhibition at 3 µM in experiment [1] is over 90%.

With `Cc1cccc(C)c1N1CCCC([N+]2(Cc3ccccc3)CCCC2)C1=O.[Br-]` (stereo not shown) [Compound 91A, 1-benzyl-1-(1-(2,6-dimethylphenyl)-2-oxopiperidin-3-yl) pyrrolidin-1-ium bromide], the inhibition at 3 µM in experiment [1] lay within 40 to 70%.

As to `Cc1cccc(C)c1NC(=O)C[N+]1(Cc2ccccc2)CCCC(F)(F)C1.[Br-]` (stereo not shown) [Compound 32A, 1-benzyl-1-(2-((2,6-dimethylphenyl)amino)-2-oxoethyl)-3,3-difluoropiperidin-1-ium bromide], in experiment [1], the inhibition at 3 µM is over 90%.

Consider `Cc1cccc(C#N)c1NC(=O)C[N+]1(Cc2ccccc2)CCCCCC1.[Br-]` [Compound 72A], for which, in experiment [1], the inhibition at 3 µM was over 90%.

For the compound `CCN(CC)C(=O)C1CCC[N+](CC(=O)Nc2c(C)cccc2C)(Cc2ccccc2)C1` (stereo not shown) [Compound 66A], in experiment [1], the inhibition at 3 µM lay within 70 to 90%.
